Source: patent US20250017998A1, “SP-8356, EMODIN, AND IT603 ENHANCE BEIGE ADIPOCYTE ACTIVITY AND ALLEVIATE OBESITY AND DIABETES VIA UNCOUPLING PROTEIN 1 (UCP1)-INDEPENDENT MECHANISM” (The Chinese University of Hong Kong, priority 2023, published 2025)

Assays:
[1] = tested on: WT human beige adipocytes; experiment: Seahorse Mitochondrial Stress Test, oxygen consumption rate in WT human beige adipocytes; type: cell-based; settings: 1 μM, 24 h, WT hiPSC-derived beige adipocytes, vs DMSO (FIGS. 2A-2C)
Protocol: (§1) FIGS. 2A-2F. SP-8356, emodin, and IT603 increase energy expenditure in human beige adipocytes in a UCP1-independent manner. WT or UCP1 knockout hiPSCs were differentiated to beige adipocytes followed by treatment with SP-8356 (1 μM), Emodin (1 μM), and IT603 (1 μM) for 24 h, respectively. DMSO was used as the vehicle control. The oxygen consumption rate (OCR) was examined by the Seahorse Mitochondrial Stress Test assay. (FIGS. 2A-2C) OCR in WT human beige adipocytes treated with SP-8356, Emodin, and IT603, respectively. (FIGS. 2D-2F) OCR in UCP1 knockout human beige adipocytes treated with SP-8356, Emodin, and IT603, respectively. *p<0.05, **p<0.01. A total of 20 days was required for hiPSC differentiation into beige adipocytes. We used BMP4 (10 ng/mL) and ActivinA (25 ng/mL) from day 0 to day 4 to induce mesodermal differentiation in the first stage. We then induce mesodermal progenitors to differentiate into adipocyte progenitors with insulin ([…]), isobutylmethylxanthine (IBMX) (500 μmol/L), dexamethasone (1 μmol/L), and indomethacin (50 μmol/L) from day 4 to day 10. Eventually, mature beige adipocytes will be formed by insulin (1 μg/mL) induction on day 10 to 20. […] were plated in the XF96 plates (Agilent Technologies, Inc., Santa Clara, CA) and differentiated into the beige adipocytes. The XF Cell Mito Stress Test Kit (Seahorse Bioscience, 103015-100) was used to perform the assay by following the manufacturer's instructions.

[2] = tested on: UCP1 knockout human beige adipocytes; experiment: Seahorse Mitochondrial Stress Test, oxygen consumption rate in UCP1 knockout human beige adipocytes; type: cell-based; settings: 1 μM, 24 h, UCP1 knockout hiPSC-derived beige adipocytes, vs DMSO (FIGS. 2D-2F)
Protocol: as §1

LETMD1 [3] = experiment: RNA-seq of LETMD1 mRNA in hiPSC-derived beige adipocytes; type: cell-based, human; settings: 0.1 μM, 24 h, RNA sequencing (FIG. 1B)
Protocol: (§2) FIGS. 1A-1C. Generation and characterization of the LETMD1-tdTomato reporter hiPSC. (FIG. 1A) Schematic illustration of the knock-in design for the LETMD1-tdTomato reporter hiPSCs. (FIG. 1B) hiPSCs were differentiated into beige adipocytes and treated with β3 adrenergic receptor (β3-AR) agonist Mirabegron (0.1 μM) for 24 h and subjected to RNA-seq. The fold change of LETMD1 and its analogue LETM1 were plotted. (FIG. 1C) Representative images of tdTomato fluorescence intensity in LETMD1 reporter hiPSC-derived beige adipocytes treated with or without Mirabegron (0.1 μM) for 24 h.
A total of 20 days was required for hiPSC differentiation into beige adipocytes. We used BMP4 (10 ng/mL) and ActivinA (25 ng/mL) from day 0 to day 4 to induce mesodermal differentiation in the first stage. We then induce mesodermal progenitors to differentiate into adipocyte progenitors with insulin ([…]), isobutylmethylxanthine (IBMX) (500 μmol/L), dexamethasone (1 μmol/L), and indomethacin (50 μmol/L) from day 4 to day 10. […]
(§3) To monitor the endogenous LETMD1 expression in human iPSCs with ease, we generated a fluorescent protein-based reporter human iPS cell line using a CRISPR/Cas9-mediated knock-in (KI) system (FIG. 1A). […] This cell line enables us to monitor the endogenous expression of LETMD1 in a high-throughput manner using the red fluorescence intensity as a surrogate.

LETMD1 [4] = experiment: LETMD1-tdTomato reporter hiPSC-derived beige adipocytes, red fluorescence; type: cell-based, human; settings: 0.1 μM, 24 h, LETMD1 reporter hiPSC-derived beige adipocytes (FIG. 1C)
Protocol: as §2
A total of 20 days was required for hiPSC differentiation into beige adipocytes. […]
LETMD1 reporter hiPSCs were plated in the 96-well plates and differentiated into beige adipocytes. […] After that, the red fluorescent signals were quantified by the ThermoFisher (Waltham, MA) Varioskan Multimode Microplate Reader. […] measurement for each compound was normalized to the vehicle control group.
as §3

Row | SMILES | oxygen consumption rate (OCR) [1] | oxygen consumption rate (OCR) [2] | mRNA level of LETMD1 (LETMD1 [3]) | density of tdTomato fluorescent protein (LETMD1 [4])
1 | COc1cc(Br)cc(/C=C2/NC(=S)NC2=O)c1O [IT603] | showed most significant capacity to elevate the OCR | enhanced the OCR |  | 
2 | Nc1nc(CC(=O)Nc2ccc(CCNC[C@H](O)c3ccccc3)cc2)cs1 [Mirabegron] |  |  | significantly increased | increased significantly
3 | COc1cc(/C=C/C2=CC(=O)[C@H]3C[C@@H]2C3(C)C)cc(O)c1O [SP-8356] | showed most significant capacity to elevate the OCR | enhanced the OCR |  | 
4 | Cc1cc(O)c2c(c1)C(=O)c1cc(O)cc(O)c1C2=O [emodin] | showed most significant capacity to elevate the OCR | enhanced the OCR |  | 
